Test results published in US7812165B2, “6-substituted pyridoindolone derivatives, production and therapeutic use thereof” (sanofi-aventis, priority 2004, dated 2010).

CCON=Cc1ccc2[nH]c3c(cc(-c4ccc(OC)cc4OC)c(=O)n3C)c2c1 [Compound 7, 3-(2,4-Dimethoxyphenyl)-1-methyl-2-oxo-2,9-dihydro-1H-pyrido[2,3-b]indole-6-carbaldehyde O-ethyloxime]
melting point: 295 °C
